Laboratory results taken from US20240294566A1, “ESTROGEN RECEPTOR BETA SELECTIVE LIGANDS” (Or-Genix Therapeutics, Inc., priority 2016, published 2024).

Experiments:
ERβ [1] = molecular target: T1, ERβ (Homo sapiens, UniProt Q92731); test: Homogeneous in vitro functional assay, coactivator recruitment (FRET); format: biochemical; conditions: for selectivity for ERβ: ERβ over ERα, functional assay
Method: (§1) Structures 15 and 15′ were tested in a functional assay for ERβ and ERα as described in Liu J. et al. A Homogeneous in Vitro Functional Assay for Estrogen Receptors: Coactivator Recruitment. Mol Endocrinology 17, 346-355 (2003). Briefly, a homogeneous in vitro functional assay for measuring ligand-dependent transactivation function of ERαa and ERβ was used to measure selectivity of structures 15 and 15′ as agonists for the two classes of receptors. Briefly, agonist binding of Structures 15 and 15′ were assessed by measuring Fluorescence Resonance Energy Transfer (FRET) between europium that is associated with ligand binding domains of ERα and ERβ, and allophycocyanine that is associated with co-activator peptide that is recruited to the LBD in response to agonist binding.
Target sequence in this assay (Q92731 264-498 limits assumed): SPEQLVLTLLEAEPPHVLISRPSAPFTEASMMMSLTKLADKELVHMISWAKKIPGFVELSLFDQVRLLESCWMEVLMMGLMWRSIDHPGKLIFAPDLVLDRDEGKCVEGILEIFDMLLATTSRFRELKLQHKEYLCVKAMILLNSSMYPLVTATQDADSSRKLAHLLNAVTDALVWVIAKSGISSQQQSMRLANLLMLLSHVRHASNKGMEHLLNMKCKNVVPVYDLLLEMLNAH

ERα [2] = molecular target: T2, ERα (Homo sapiens, UniProt P03372); test: as above; format: biochemical; conditions: FIG. 1
T2 sequence (P03372 311-547 limits assumed): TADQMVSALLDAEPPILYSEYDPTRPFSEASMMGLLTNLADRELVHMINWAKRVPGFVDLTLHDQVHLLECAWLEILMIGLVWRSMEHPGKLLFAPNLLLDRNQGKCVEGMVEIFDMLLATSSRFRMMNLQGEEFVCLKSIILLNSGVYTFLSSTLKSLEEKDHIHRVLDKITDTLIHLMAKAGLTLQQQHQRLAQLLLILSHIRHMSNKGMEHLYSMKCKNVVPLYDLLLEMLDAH
Method: as §1

ERα [3] = molecular target: T3, ERα (Homo sapiens, UniProt P03372); test: Dual estrogen receptor TR-FRET functional assay; format: biochemical; conditions: dual ER TR-FRET assay
T3 sequence (P03372 1-595): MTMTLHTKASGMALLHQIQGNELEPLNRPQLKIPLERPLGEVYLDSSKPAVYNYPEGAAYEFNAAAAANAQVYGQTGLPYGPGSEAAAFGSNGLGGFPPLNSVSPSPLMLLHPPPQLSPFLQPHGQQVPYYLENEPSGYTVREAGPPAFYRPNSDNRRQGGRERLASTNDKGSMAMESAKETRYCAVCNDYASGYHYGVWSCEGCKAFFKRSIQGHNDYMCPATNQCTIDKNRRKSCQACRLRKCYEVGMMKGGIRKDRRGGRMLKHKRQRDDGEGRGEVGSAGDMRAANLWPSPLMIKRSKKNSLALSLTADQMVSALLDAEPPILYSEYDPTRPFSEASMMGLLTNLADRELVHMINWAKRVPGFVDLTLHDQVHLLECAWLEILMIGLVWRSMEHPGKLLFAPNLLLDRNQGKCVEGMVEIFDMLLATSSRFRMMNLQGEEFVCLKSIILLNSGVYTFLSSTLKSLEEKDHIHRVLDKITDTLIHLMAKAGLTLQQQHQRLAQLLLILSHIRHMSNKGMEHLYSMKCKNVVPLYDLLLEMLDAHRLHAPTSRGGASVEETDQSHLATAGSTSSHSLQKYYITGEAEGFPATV
Method: (§2) Structures 3 and 3' were tested in a functional assay for ERβ and ERα as described in […]., Puetter V., Otto C. Parczyk K. & Bader B. A Dual Estrogen Receptor TR-FRET Assay for Simultaneous Measurement of Steroid Site Binding and Coactivator Recruitment. J Biomolec Screening 15, 268-278 (2010). Briefly, agonist binding of Structures 3 and 3' to ERα and ERβ were assessed by a dual estrogen receptor TR-FRET assay.

ERβ [4] = molecular target: T1, ERβ; test: Dual estrogen receptor TR-FRET functional assay; format: biochemical; conditions: dual ER TR-FRET assay, FIG. 3
Method: as §2
Target sequence in this assay (Q92731 whole entry, the tested form may be a part): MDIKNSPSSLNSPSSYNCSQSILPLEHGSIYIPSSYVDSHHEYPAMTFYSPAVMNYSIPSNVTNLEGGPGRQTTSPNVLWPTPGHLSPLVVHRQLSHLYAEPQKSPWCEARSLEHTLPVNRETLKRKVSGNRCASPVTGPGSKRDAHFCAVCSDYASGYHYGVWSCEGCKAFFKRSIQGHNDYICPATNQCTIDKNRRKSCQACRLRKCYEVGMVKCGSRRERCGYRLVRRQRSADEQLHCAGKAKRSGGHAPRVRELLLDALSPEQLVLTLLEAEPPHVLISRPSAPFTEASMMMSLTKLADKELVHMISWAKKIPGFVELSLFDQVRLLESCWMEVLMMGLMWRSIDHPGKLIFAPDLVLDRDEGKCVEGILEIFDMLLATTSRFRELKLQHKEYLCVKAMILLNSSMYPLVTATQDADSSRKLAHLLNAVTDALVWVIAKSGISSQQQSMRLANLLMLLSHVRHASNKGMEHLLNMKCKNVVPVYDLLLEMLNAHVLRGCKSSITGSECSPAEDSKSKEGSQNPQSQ

ERα [5] = molecular target: T3, ERα; test: Binding assay, inhibition of [3H] estradiol binding to hER
Method: (§3) Structures 3 and 3' were tested in a binding assay for ERβ and ERα as described in Obourn […]. & Notides A. C. Hormone-and DNA-Binding Mechanisms of the Recombinant Human Estrogen Receptor. Biochemistry 32, 6229-6236 (1993). Briefly, agonist binding of Structure 3 and Structure 3' to ERα and ERβ were assessed by Scatchard analysis measuring inhibition of [^3H] estradiol binding to hER by Structure 3 and 3'.

ERβ [6] = molecular target: T1, ERβ; test: as above; conditions: FIG. 2
Method: as §3
Target sequence in this assay (Q92731 whole entry, the tested form may be a part): as above

Row | Compound | selectivity for ERβ (ERβ [1]) | EC50 (ERβ [4]) | IC50 (ERβ [6]) | other results
1 | COC(=O)CC[C@H]1C[C@H]2[C@@H]3CCc4cc(O)ccc4[C@H]3CC[C@]2(C)[C@H]1O [Compound 15] | > 10 fold | – | – | EC50 (ERβ [1]; functional coactivator recruitment FRET assay, FIG. 1): ~10000 nM; EC50 (ERα [2]): > 100000 nM
2 | COC(=O)CC[C@@H]1C[C@H]2[C@@H]3CCc4cc(O)ccc4[C@H]3CC[C@]2(C)[C@H]1O [Compound 15′, reference compound] | ~2 fold | – | – | –
3 | CCOC(=O)[C@H]1C[C@H]2[C@@H]3CCc4cc(O)ccc4[C@H]3CC[C@]2(C)[C@H]1O [Structure 3] | – | 3000 nM | 100 nM | EC50 (ERα [3]; FIG. 3A): 1080 nM; IC50 (ERα [5]; FIG. 2): 78 nM
4 | CCOC(=O)[C@@H]1C[C@H]2[C@@H]3CCc4cc(O)ccc4[C@H]3CC[C@]2(C)[C@H]1O [Structure 3′, reference compound] | – | > 10000 nM | 140 nM | EC50 (ERα [3]; FIG. 3B): 5.92 nM; IC50 (ERα [5]; FIG. 2B): 1.46 nM
